According to patent publication US10513521B2, “Compositions and methods for inhibiting BMP” (The Brigham and Women's Hospital, Inc., priority 2014, dated 2019):
Residue numbers refer to the chain shown, from its start. Where two headings read alike, the source gives them in different places.

Key:
ALK2 [1] = target: T1, ALK2 (Mus musculus, UniProt P37172); assay: HTRF pSMAD1 cell-based ALK2 assay (C2C12 cells, BMP6 as agonist)
T1 construct: The C2C12 cell line was selected for the measurement of ALK2 activity using BMP6 as the agonist; host or cells: C2C12
T1 sequence (P37172 21-509): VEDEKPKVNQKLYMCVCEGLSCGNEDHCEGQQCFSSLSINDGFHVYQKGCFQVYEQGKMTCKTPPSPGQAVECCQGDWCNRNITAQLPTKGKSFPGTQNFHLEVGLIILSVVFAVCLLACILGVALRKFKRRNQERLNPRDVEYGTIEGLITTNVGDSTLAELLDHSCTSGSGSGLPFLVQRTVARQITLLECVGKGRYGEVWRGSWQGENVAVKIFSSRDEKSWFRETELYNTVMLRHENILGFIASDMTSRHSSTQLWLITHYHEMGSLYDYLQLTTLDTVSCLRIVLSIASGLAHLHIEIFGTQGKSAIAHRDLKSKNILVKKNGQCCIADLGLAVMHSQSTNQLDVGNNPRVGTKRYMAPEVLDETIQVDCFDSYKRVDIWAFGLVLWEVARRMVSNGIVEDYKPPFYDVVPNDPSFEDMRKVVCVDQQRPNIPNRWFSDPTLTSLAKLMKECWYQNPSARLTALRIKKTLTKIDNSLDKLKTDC
Outline: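 Phospho-SMAD1 HTRF readout, detection incubated overnight at room temperature. Before that: starved cells in 0.1% FBS for 4 h, 30 min compound pretreatment, then 30 min agonist, BMP6 on C2C12 or BMP9 on BAOEC.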

ALK2 [2] = target: T2, ALK2 (Homo sapiens, UniProt Q04771); assay: TR-FRET enzymatic ALK kinase assay, ALK2
T2 sequence (Q04771 21-509): T1 sequence (P37172 21-509) with V1M, Q10P, I121L, E162D, S310P
Procedure: (§1) Briefly, the ALKs enzymatic assay was initiated by dispense 2.5 μl enzyme in 1× kinase reaction buffer. The assay plate was then added with compounds followed by incubation at room temperature for 10 minutes. Then 2.5 μl/well substrate was added.

ALK1 = ALK1 (Homo sapiens, UniProt P37023); assay: TR-FRET enzymatic ALK kinase assay, ALK1
Chain of ALK1 (P37023 22-503): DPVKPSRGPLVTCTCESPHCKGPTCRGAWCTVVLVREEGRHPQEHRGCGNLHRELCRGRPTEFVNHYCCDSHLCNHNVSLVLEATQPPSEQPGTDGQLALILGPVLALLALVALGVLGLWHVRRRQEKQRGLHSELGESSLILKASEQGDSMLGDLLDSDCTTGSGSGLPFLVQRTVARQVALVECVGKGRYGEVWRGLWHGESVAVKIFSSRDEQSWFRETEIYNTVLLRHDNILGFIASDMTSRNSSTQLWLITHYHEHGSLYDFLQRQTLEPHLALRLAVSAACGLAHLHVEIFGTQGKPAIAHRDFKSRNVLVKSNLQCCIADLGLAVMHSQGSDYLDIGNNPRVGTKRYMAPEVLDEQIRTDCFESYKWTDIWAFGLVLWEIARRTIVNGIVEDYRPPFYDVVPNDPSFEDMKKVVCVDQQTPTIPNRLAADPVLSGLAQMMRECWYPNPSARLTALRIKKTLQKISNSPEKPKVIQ
Procedure: as §1

[3] = Cell-based assay, TGFb1 (Cell IC50)
ALK3 = ALK3 (Homo sapiens, UniProt P36894); assay: TR-FRET enzymatic ALK kinase assay, ALK3
Chain of ALK3 (P36894 24-532): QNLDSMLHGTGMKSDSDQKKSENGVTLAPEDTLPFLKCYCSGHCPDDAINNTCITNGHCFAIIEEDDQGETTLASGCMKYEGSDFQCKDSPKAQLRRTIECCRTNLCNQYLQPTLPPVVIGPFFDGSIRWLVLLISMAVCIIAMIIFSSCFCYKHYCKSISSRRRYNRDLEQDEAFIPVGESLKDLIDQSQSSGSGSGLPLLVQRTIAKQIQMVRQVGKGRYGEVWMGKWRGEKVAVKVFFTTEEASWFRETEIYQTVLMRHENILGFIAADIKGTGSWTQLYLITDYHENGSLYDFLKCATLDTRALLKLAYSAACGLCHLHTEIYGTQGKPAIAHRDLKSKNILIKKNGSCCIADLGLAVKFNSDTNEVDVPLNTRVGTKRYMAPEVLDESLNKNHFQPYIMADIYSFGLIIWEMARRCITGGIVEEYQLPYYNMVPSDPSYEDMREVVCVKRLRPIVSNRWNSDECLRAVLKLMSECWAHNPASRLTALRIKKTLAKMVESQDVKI
Procedure: as §1

ALK6 = ALK6 (Homo sapiens, UniProt O00238); assay: TR-FRET enzymatic ALK kinase assay, ALK6
Chain of ALK6 (O00238 14-502): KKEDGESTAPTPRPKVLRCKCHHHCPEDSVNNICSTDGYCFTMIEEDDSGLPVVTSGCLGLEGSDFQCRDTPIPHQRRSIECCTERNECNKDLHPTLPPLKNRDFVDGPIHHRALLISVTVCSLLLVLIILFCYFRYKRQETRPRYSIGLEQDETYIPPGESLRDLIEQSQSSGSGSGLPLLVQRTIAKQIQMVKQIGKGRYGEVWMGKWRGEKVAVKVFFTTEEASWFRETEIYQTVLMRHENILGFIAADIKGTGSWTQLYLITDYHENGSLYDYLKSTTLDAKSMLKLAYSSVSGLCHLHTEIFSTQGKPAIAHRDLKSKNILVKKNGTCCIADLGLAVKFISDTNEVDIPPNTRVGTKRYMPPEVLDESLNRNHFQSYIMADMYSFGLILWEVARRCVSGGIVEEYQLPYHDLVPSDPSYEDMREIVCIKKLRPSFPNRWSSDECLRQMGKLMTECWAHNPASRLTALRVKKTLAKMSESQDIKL
Procedure: as §1

ALK4 = target: T3, ALK4 (Homo sapiens, UniProt P36896); assay: TR-FRET enzymatic ALK kinase assay, ALK4
T3 sequence (P36896 24-505): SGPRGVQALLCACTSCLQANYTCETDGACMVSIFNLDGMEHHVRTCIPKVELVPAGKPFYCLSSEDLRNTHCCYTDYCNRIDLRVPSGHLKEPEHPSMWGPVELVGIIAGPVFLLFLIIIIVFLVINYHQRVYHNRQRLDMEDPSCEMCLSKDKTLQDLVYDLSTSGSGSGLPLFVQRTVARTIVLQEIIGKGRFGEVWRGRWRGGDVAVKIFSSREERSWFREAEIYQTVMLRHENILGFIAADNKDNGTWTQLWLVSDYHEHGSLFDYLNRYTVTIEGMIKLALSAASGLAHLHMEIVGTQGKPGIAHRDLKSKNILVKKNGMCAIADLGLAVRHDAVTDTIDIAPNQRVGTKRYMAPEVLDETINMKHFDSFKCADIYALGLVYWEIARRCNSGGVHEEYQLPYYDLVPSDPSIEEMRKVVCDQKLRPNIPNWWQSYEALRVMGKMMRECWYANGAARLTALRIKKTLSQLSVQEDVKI
Procedure: as §1

ALK5 = target: T4, ALK5 (Homo sapiens, UniProt P36897); assay: TR-FRET enzymatic ALK kinase assay, ALK5
T4 sequence (P36897 34-503): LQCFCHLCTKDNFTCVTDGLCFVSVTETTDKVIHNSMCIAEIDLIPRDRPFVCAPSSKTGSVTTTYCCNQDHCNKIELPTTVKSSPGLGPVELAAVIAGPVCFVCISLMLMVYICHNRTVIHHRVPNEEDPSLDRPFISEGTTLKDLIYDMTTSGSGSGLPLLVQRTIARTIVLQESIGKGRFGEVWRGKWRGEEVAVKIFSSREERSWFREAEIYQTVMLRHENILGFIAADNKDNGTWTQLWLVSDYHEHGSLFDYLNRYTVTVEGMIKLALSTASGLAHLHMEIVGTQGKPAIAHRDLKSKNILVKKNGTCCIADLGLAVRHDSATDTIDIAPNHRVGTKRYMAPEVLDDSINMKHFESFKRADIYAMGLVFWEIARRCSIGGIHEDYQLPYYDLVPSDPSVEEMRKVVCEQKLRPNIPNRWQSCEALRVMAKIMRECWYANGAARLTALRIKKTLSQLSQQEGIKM
Procedure: Six ALK kinase enzyme assays were developed for determination of compound activities on ALK1, ALK2, ALK3, ALK4, ALK5 and ALK6.
as §1

[4] = cell-based assay, BMP6, read-out: Cell IC50 BMP6
[5] = HTRF assay, BMP6 as agonist, C2C12 cells, read-out: BMP6 HTRF

Which results are given for `CNC(=O)c1ccc(-c2cnn3cc(-c4ccc(N5CCNCC5)cc4)cnc23)c2ccccc12` [Compound 3, N-methyl-4-(6-(4-(piperazin-1-yl)phenyl)pyrazolo[1,5-a]pyrimidin-3-yl)-1-naphthamide]?
IC50 (ALK2 [1]; [4]): 3.19 µM; IC50 (ALK2 [2]): 1.76 µM; IC50 (ALK1): 19.6 µM; IC50 [3]: 15.3 µM; IC50 (ALK3): 18.2 µM

For `CN(C)C(=O)c1ccc(-c2cnn3cc(-c4ccc(N5CCNCC5)cc4)cnc23)c2ccccc12` [Compound 4, N,N-dimethyl-4-(6-(4-(piperazin-1-yl)phenyl)pyrazolo[1,5-a]pyrimidin-3-yl)-1-naphthamide], which IC50 (ALK2 [1]; [4]) is on record?
Its IC50 is 0.593 µM.

What about the IC50 (ALK2 [2]) of the same compound?
Its IC50 is 2.83 µM.

And the IC50 (ALK1)?
Its IC50 is 15.4 µM.

And the IC50 [3]?
Its IC50 is 10.6 µM.

What about the IC50 (ALK6) of the same compound?
Its IC50 is 76.4 µM.

Which IC50 (ALK2 [1]; [4]) does the source give for `C[C@@H]1CNC[C@H](C)N1c1ccc(-c2cnc3c(-c4ccc(CN)c5ccccc45)cnn3c2)cc1` [Compound 23, (4-(6-(4-((2R,6S)-2,6-dimethylpiperazin-1-yl)phenyl)pyrazolo[1,5-a]pyrimidin-3-yl)naphthalen-1-yl)methanamine] here?
Its IC50 is 0.033 µM.

What about the IC50 (ALK2 [2]) of the same compound?
Its IC50 is 5.31 µM.

What about the IC50 (ALK1) of the same compound?
Its IC50 is 9.6 µM.

What about the IC50 [3] of the same compound?
Its IC50 is 10.8 µM.

With `c1cc(-c2nn[nH]n2)cc(-c2cnn3cc(-c4ccc(CCN5CCCCC5)cc4)cnc23)c1` [Compound 89, 3-(3-(2H-tetrazol-5-yl)phenyl)-6-(4-(2-(piperidin-1-yl)ethyl)phenyl)pyrazolo[1,5-a]pyrimidine] as the compound, how does the IC50 (ALK2 [2]) read?
Its IC50 is 0.014 µM.

What about the IC50 (ALK4) of the same compound?
The IC50 was over 10 µM.

And the IC50 (ALK1)?
Its IC50 is 7.1 µM.

What about the IC50 [3] of the same compound?
The IC50 was 12.4 µM.

What about the IC50 (ALK6) of the same compound?
The IC50 was over 10 µM.

What about the IC50 (ALK5) of the same compound?
The IC50 was over 10 µM.

What about the IC50 (ALK3) of the same compound?
Its IC50 is over 10 µM.

Which results are given for `CS(=O)(=O)c1cccc(-c2cnn3cc(-c4ccc(OC5(CN6CCCCC6)CC5)cc4)cnc23)c1` [Compound 134, 3-(3-(methylsulfonyl)phenyl)-6-(4-(1-(piperidin-1-ylmethyl)cyclopropoxy)phenyl)pyrazolo[1,5-a]pyrimidine]?
IC50 (ALK2 [1]; [5]): 0.27 µM; IC50 (ALK2 [2]): 0.045 µM; IC50 (ALK4): > 10 µM; IC50 (ALK1): 0.27 µM; IC50 (ALK6): > 10 µM; IC50 (ALK5): > 10 µM; IC50 (ALK3): 1.4 µM

Which results are given for `CC(O)c1cccc(-c2cnn3cc(-c4ccc(C5(C)CCNCC5)cc4)cnc23)c1` (stereo not drawn) [Compound 136, 1-(3-(6-(4-(4-methylpiperidin-4-yl)phenyl)pyrazolo[1,5-a]pyrimidin-3-yl)phenyl)ethanol]?
IC50 (ALK2 [1]; [5]): 0.38 µM; IC50 (ALK2 [2]): 0.057 µM; IC50 (ALK4): > 10 µM; IC50 (ALK1): 0.22 µM; IC50 (ALK6): > 10 µM; IC50 (ALK5): > 10 µM; IC50 (ALK3): 2.9 µM

Which results are given for `C[C@@H](O)c1cccc(-c2cnn3cc(-c4ccc(OC5(CN6CCCCC6)CC5)cc4)cnc23)c1` [Compound 152, (R)-1-(3-(6-(4-(1-(piperidin-1-ylmethyl)cyclopropoxy)phenyl)pyrazolo[1,5-a]pyrimidin-3-yl)phenyl)ethanol]?
IC50 (ALK2 [1]; [5]): 0.45 µM; IC50 (ALK2 [2]): 0.054 µM; IC50 (ALK4): > 10 µM; IC50 (ALK1): 0.59 µM; IC50 (ALK6): 5.6 µM; IC50 (ALK5): > 10 µM; IC50 (ALK3): 1.3 µM

With `CS(=O)(=O)c1cccc(-c2cnn3cc(-c4ccc(CN5CCCC5)cc4)cnc23)c1` [Compound 164, 3-(3-(methylsulfonyl)phenyl)-6-(4-(pyrrolidin-1-ylmethyl)phenyl)pyrazolo[1,5-a]pyrimidine] as the compound, how does the IC50 (ALK2 [1]; [5]) read?
The IC50 was 0.18 µM.

And the IC50 (ALK2 [2])?
The IC50 was 0.003 µM.

And the IC50 (ALK4)?
The IC50 was 4.4 µM.

And the IC50 (ALK1)?
Its IC50 is 0.033 µM.

What about the IC50 (ALK6) of the same compound?
The IC50 was 9.8 µM.

And the IC50 (ALK5)?
Its IC50 is 8.2 µM.

What about the IC50 (ALK3) of the same compound?
The IC50 was 0.39 µM.

For `CC(O)c1cccc(-c2cnn3cc(-c4ccc(CN5CCCC5)cc4)cnc23)c1` (stereo not drawn) [Compound 165, 1-(3-(6-(4-(pyrrolidin-1-ylmethyl)phenyl)pyrazolo[1,5-a]pyrimidin-3-yl)phenyl)ethanol], which IC50 (ALK2 [1]; [5]) is on record?
Its IC50 is 0.24 µM.

What about the IC50 (ALK2 [2]) of the same compound?
Its IC50 is 0.003 µM.

And the IC50 (ALK4)?
Its IC50 is 1.3 µM.

What about the IC50 (ALK1) of the same compound?
Its IC50 is 0.032 µM.

And the IC50 (ALK6)?
The IC50 was 3.1 µM.

What about the IC50 (ALK5) of the same compound?
Its IC50 is 5.9 µM.

What about the IC50 (ALK3) of the same compound?
The IC50 was 0.14 µM.

For `CC(O)c1cccc(-c2cnn3cc(-c4ccc(OC5(CN6CCCC6)CC5)cc4)cnc23)c1` (stereo not drawn) [Compound 167, 1-(3-(6-(4-(1-(pyrrolidin-1-ylmethyl)cyclopropoxy)phenyl)pyrazolo[1,5-a]pyrimidin-3-yl)phenyl)ethanol], which IC50 (ALK2 [1]; [5]) is on record?
Its IC50 is 0.37 µM.

And the IC50 (ALK2 [2])?
Its IC50 is 0.049 µM.

What about the IC50 (ALK4) of the same compound?
The IC50 was over 10 µM.

And the IC50 (ALK1)?
Its IC50 is 0.6 µM.

And the IC50 (ALK6)?
Its IC50 is 9.3 µM.

What about the IC50 (ALK5) of the same compound?
The IC50 was over 10 µM.

And the IC50 (ALK3)?
Its IC50 is 1.1 µM.
